In the supplement of paper PMC3068080:

Tests used:
TGFBR2 mRNA = test: remaining TGFBR2 mRNA relative to control siRNA (off-target knock-down) (fraction of control); quantification method: branched DNA; higher = less knock-down
Procedure: (§1)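 Screen-hit siRNA duplexes (19-mer plus 3' dTdT overhang) were transiently transfected into HaCaT cells in 12-well plates. After 48 h, TGFBR1 and TGFBR2 mRNA were quantified by branched DNA assay (QuantiGene, normalised to HPRT1) or by SYBR qPCR (normalised to HPRT1/SMAD4). Values are the remaining mRNA relative to control-siRNA-transfected cells; 1-2 biological replicates.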

TGFBR1 mRNA = test: remaining TGFBR1 mRNA relative to control siRNA (off-target knock-down) (fraction of control); quantification method: branched DNA; higher = less knock-down
Procedure: as §1

Sequence	remaining TGFBR2 mRNA (TGFBR2 mRNA)	remaining TGFBR1 mRNA (TGFBR1 mRNA)
AGGUCAUCACGUACUUUUUTT	1.09	0.16
AGGUUGUGGGCAAAGAUGUTT	0.83	0.92
AGUGGUACCACGAGCAAAGTT	0.66	0.88
AGUUCUCUCAAUUGCUUACTT	0.54	0.92
AUAAGACAAGUGGUCGGGGTT	0.94	0.52
AUAAGCAGUAAGUAGCUGGTT	0.99	0.5
AUAAGCAGUGAGAACGAGCTT	1.26	0.5
AUAUAUACUGCUAUGGUCATT	0.39	0.39
AUAUCCCGGGAGUUGUCGUTT	0.37	1.1
AUAUGUAAGACCUUCCUUCTT	0.25	0.38
AUAUUCCGUAAAACGAACATT	0.38	0.77
AUCCUGAGAUGUCAGCAGCTT	0.4	1.42
AUCCUUGGAGAUGAGCUGGTT	0.16	0.72
AUCCUUGGCCAGUUUGGUCTT	0.15	1.19
AUCCUUGUCUGGAACAGUGTT	0.25	1.33
AUCUAAACUCCUCUGGAGCTT	0.38	0.76
AUCUACACACACGCAAGAATT	0.73	1.48
AUGACACCUCAGUCCUUCCTT	0.88	0.38
AUGCACCGAACAGCUCCAUTT	0.31	1.56
AUGCACUGAAGAAUUUCUUTT	0.75	0.43
AUGCCAUUGUGCAUUGUCATT	0.36	0.85
AUGCUCCCUCUCAUACUCUTT	0.39	0.9
AUGGACAUUUACGGUAGUGTT	0.46	0.44
AUGGAGUAGCAUCACUCUCTT	0.33	1.1
AUGGCUAUUCCUGACCACGTT	0.26	0.93
AUGGUGAGAAGACACAGGCTT	0.54	1.33

Sequence	remaining TGFBR2 mRNA (TGFBR2 mRNA)	remaining TGFBR1 mRNA (TGFBR1 mRNA)
AUGGUGUGGCUCGUCGUGCTT	0.46	0.45
AUGGUGUUUGCAAGCUCCUTT	0.36	1
AUGUAUAGGUAGUGCACAGTT	0.35	0.98
AUGUAUAGUCACGCAGUUCTT	0.24	0.98
AUGUCUCAAAGUCAAAAAATT	0.58	0.92
AUGUUCCGCCUGCUUUUGCTT	0.38	1.19
AUUAUGUCCUCUACGAUUATT	0.49	0.76
AUUGAAGCCACCAUUCUCCTT	0.94	0.23
AUUGUUCCGGAAAUAGGUCTT	0.72	1.15
AUUUCGCACACGUCCGUGUTT	0.61	0.86
CAAACAGCGGUUGGAAUAATT	0.33	0.81
CACUUCCCGGAUACUCAGATT	0.33	0.96
CAGAGCGAUCACCUUGAACTT	0.17	0.66
CAGUCUCAUCGUCCUCAUCTT	0.69	1.07
CCACUGGUGUGGGCCAUAATT	0.51	1.38
CCCAAGUCAUCCUGGUUGUTT	0.67	0.83
CCUCAAUUGACACUUGCCUTT	0.8	1
CUACCAUCAAUCCGGUAGGTT	0.84	0.94
CUCCUUGGCACACUUCUCATT	0.34	0.93
CUGACCAUGCAGAGGAUGATT	0.82	0.83
CUUGACUUCUGGGGUCCACTT	0.94	0.92
CUUGGUACAGCACAUGGUUTT	0.82	0.55
GAAGGUGUGAGUGAGGUCATT	1.17	0.19
GAGCAGCUCUCGUAGCCAUTT	0.33	1.01
GAGGUUGUUGUUGAGCUCGTT	0.73	0.96
GAGUGACCUGCUCCUCUAATT	0.61	1.01

Sequence	remaining TGFBR2 mRNA (TGFBR2 mRNA)	remaining TGFBR1 mRNA (TGFBR1 mRNA)
GAUGAAGAAGAGCGCAGCATT	1.08	1.27
GAUGGACUGCAUACAUUGGTT	0.87	0.29
GAUGUUCCACAAAUUCCACTT	0.47	0.85
GCUGAAUGAGGGUAGUCUUTT	0.64	0.28
GGAAGUGUCAUGGAAGGUGTT	0.29	0.7
GGGCUGUCAAUGACAGCUUTT	0.6	0.82
GGGUUUUCCCAGUCACGACTT	0.54	0.91
GGUGCCAGGCAUUUUAUCCTT	0.9	1.06
GUUCAGCAGCAGCAGACCATT	0.79	1.16
GUUCUUGGGCUAUGUCCAATT	0.32	0.89
UAACGUGUGUAUGUCUGGCTT	0.69	0.3
UACAUGAUGUAAACGAUAATT	0.54	0.44
UACUUAAAGCCAGGGCCACTT	0.77	1.32
UAGCAUUCAUUUUCCGUGGTT	0.27	0.72
UAUAACUCUCAGGGGAUAUTT	0.4	1.07
UAUAGUCCACAGACACGCUTT	0.97	0.92
UAUCUCAUGAAAGCGCUUCTT	0.25	1.12
UAUGCUCCUCUUCCUGUUCTT	0.57	1.43
UCAACAAGCUAAGUCUGCCTT	0.72	1.1
UCAAGCCCAGAGGUGUCAUTT	1	1.24
UCAAGGUGGACAAAGCUCUTT	0.29	0.74
UCAAGUGCAGUAGUAGAUGTT	0.51	1.09
UCAAGUGCAUCUCCACAGCTT	0.23	1.29
UCACCUUGCAGGAAGGAAGTT	0.71	1.26
UCAUAAGCAUGCUCCACACTT	0.62	0.14
